These results are taken from ChEMBL document CHEMBL1138944, “3-Substituted gem-cyclohexane sulfone based gamma-secretase inhibitors for Alzheimer's disease: conformational analysis and biological activity” (Bioorg Med Chem Lett, 2006).

This test addresses Gamma-secretase. Kind of test: Inhibition of gamma secretase expressed in SH-SY5Y cells. The format is cell-based, Homo sapiens.
As a reminder, the IC50 is the point on the concentration scale where inhibition reaches its midpoint. For the molecule `O=C(O)CC[C@H]1CCC[C@](c2cc(F)ccc2F)(S(=O)(=O)c2ccc(Cl)cc2)C1` (relative stereo), the IC50 turned out to be 380 nM.

`C=CC[C@@H]1CCC[C@](c2cc(F)ccc2F)(S(=O)(=O)c2ccc(Cl)cc2)C1` (relative stereo) came in with an IC50 of 44 nM.

In the case of `O=C(O)CC[C@@H]1CCC[C@](c2cc(F)ccc2F)(S(=O)(=O)c2ccc(Cl)cc2)C1` (relative stereo), the IC50 stood at 24 nM.

As for `C=CC[C@H]1CCC[C@](c2cc(F)ccc2F)(S(=O)(=O)c2ccc(Cl)cc2)C1`, the midpoint of inhibition, the IC50, lay at 85 nM.

On to `COC(=O)/C=C/C[C@H]1CCC[C@](c2cc(F)ccc2F)(S(=O)(=O)c2ccc(Cl)cc2)C1` (relative stereo), for which the IC50 was found to be 210 nM. Compared with the last molecule, the IC50 is about 2.5-fold higher.

Regarding `COC(=O)CCC[C@H]1CCC[C@](c2cc(F)ccc2F)(S(=O)(=O)c2ccc(Cl)cc2)C1` (relative stereo), the IC50 came to 376 nM. Against the preceding molecule, the IC50 is about 1.8-fold higher.

The molecule `COC(=O)CCC[C@]1(C)CCC[C@](c2cc(F)ccc2F)(S(=O)(=O)c2ccc(Cl)cc2)C1` (relative stereo) registered an IC50 of 10 nM. This IC50 lies about 38-fold lower than the previous one.

`COC(=O)/C=C/C[C@@H]1CCC[C@](c2cc(F)ccc2F)(S(=O)(=O)c2ccc(Cl)cc2)C1` (relative stereo) yielded an IC50 of 10 nM. This counts as double-digit nanomolar.

`O=C[C@H]1CCC[C@](c2cc(F)ccc2F)(S(=O)(=O)c2ccc(Cl)cc2)C1` (relative stereo) gave an IC50 of 55 nM.

The molecule `COC(=O)CCC[C@@]1(C)CCC[C@](c2cc(F)ccc2F)(S(=O)(=O)c2ccc(Cl)cc2)C1` (relative stereo) registered an IC50 of 1630 nM.

Regarding `O=S(=O)(c1ccc(Cl)cc1)[C@@]1(c2cc(F)ccc2F)CCC[C@H](CCCO)C1` (relative stereo), the IC50 turned out to be 112 nM.

Molecule `O=C[C@@H]1CCC[C@](c2cc(F)ccc2F)(S(=O)(=O)c2ccc(Cl)cc2)C1` (relative stereo) yielded an IC50 of 77 nM.

As to `O=S(=O)(c1ccc(Cl)cc1)[C@@]1(c2cc(F)ccc2F)CCC[C@@H](CCCO)C1` (relative stereo), the IC50 is 8 nM.

For the molecule `COC(=O)CCC[C@@H]1CCC[C@](c2cc(F)ccc2F)(S(=O)(=O)c2ccc(Cl)cc2)C1` (relative stereo), the midpoint of inhibition, the IC50, lay at 3 nM.
